Experimental data taken from patent US8512961B2, “Methods of detecting and treatment of cancers using Scutellaria barbata extract” (Bionovo, Inc., priority 2007, dated 2013).

Experiments:
SKBr3 cells = test: 8-oxoguanine, flow cytometry with avidin fluorescein; type: cell-based, human; settings: cells pretreated prior to addition of BZL101
Protocol: To verify that BZL101 leads to oxidative DNA damage, it was determined whether the DNA of BZL101-treated cells contains 8-oxoguanine, the most ubiquitous marker of DNA oxidation. […] (See FIG. 9). […] (See FIG. 10). Analysis of the 8-oxoguanidine and apurininc/apyrimidinic (AP) bases in DNA. The Calbiochem kit was used for staining of the fixed and permeabilized cells with avidin fluorescein. Quantification of apurinic/[…] nucleotides in genomic DNA was performed using the DNA damage quantification kit from BioVision Research Products.

DNA = DNA damage, comet formation; type: cell-based; settings: for effect on comet formation induced by BZL101: cells pretreated prior to the addition of BZL101
Excerpt: There is a different fold increase of ROS levels in different cells treated with BZL101 compared to control untreated cells. It is of particular interest that the increase in ROS correlates well with the degree of DNA damage induced in these cells.
To further implicate ROS in the induction of DNA damage, comet formation in cells pretreated with the antioxidants NAC and pyruvate prior to the addition of BZL101 were examined.

ROS = ROS generation, staining with ROS-sensitive probe CM-H2DCFDA; type: cell-based; settings: incubation of cells prior to addition of BZL101; SKBr3 cells

Row | SMILES | effect on BZL101-induced increase in avidin binding (8-oxoguanine) (SKBr3 cells) | effect on comet formation induced by BZL101 (DNA) | DNA damage repair in cancer cells (DNA; in the presence of the antioxidant, BZL101-treated cancer cells) | effect on BZL101-induced ROS generation (ROS)
1 | CC(=O)N[C@@H](CS)C(=O)O [NAC, N-acetyl-cysteine] | completely abolished | significantly reduced the number of cells forming comets | greatly accelerated | prevented most of the increase in ROS generation
2 | CC1(C)N([O])C(c2ccccc2)=[N+]([O-])C1(C)C [PTIO] |  | no effect |  | 
